# Laboratory results: patent US6461997B1, “Triazole sulfones having herbicidal activity” (Monsanto Technology LLC, priority 1999, dated 2002)
# Columns and labels:
# SINAR (wild mustard) = test: Pre-emergence herbicidal activity, cool season; format: in vivo, Sinapis arvensis; settings: lowest tested rate with 80% or greater inhibition; rates 300, 100, 30, 10 g/ha; about 14 days
# Procedure, shortened: (§1)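 Seeds sown in sterilised fertilised topsoil received surface-applied compound in 50:50 acetone/water, typically at 300, 100, 30 and 10 g/ha, then greenhouse-grown at 30/21° C (warm-season species) or 18/13° C (cool-season species). Percent inhibition versus untreated plants was scored at about 14 days, giving GR80; an asterisk marks activity short of 80% at the top rate.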
# [1] = test system: LAMPU (purple deadnettle); test: Pre-emergence herbicidal activity, cool season; format: in vivo, Lamium purpureum; settings: lowest tested rate with 80% or greater inhibition; rates 300, 100, 30, 10 g/ha; about 14 days
# Procedure, shortened: as §1
# SETVI (green foxtail) = test: Pre-emergence herbicidal activity, cool season; format: in vivo, Setaria viridis; settings: GR80 = lowest tested rate (300, 100, 30, 10 g/ha) with 80% or greater inhibition; approx. 14 days after treating; 18/13° C.
# Procedure, shortened: as §1
# [2] = test system: AGSST (creeping bentgrass); test: Pre-emergence herbicidal activity, cool season; format: in vivo, Agrostis stolonifera; settings: GR80 = lowest tested rate (300, 100, 30, 10 g/ha) with 80% or greater inhibition; approx. 14 days after treating; 18/13° C.
# Procedure, shortened: as §1
# AMARE (redroot pigweed) = test: Pre-plant incorporated (PPI) herbicidal activity, warm season; format: in vivo, Amaranthus retroflexus; settings: for inhibition at 10 g/ha / inhibition at 30 g/ha / inhibition at 100 g/ha / inhibition at 300 g/ha / inhibition at 900 g/ha: Amaranthus retroflexus, PPI application, read-out: Percent inhibition AMARE; for PPI activity (GR80) AMARE: pre-plant incorporated, GR80 = lowest tested rate with 80% or greater inhibition, approx. 14 days after treating, 30/21° C.
# Procedure, shortened: (§2)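 Spray-treated, thoroughly mixed cover soil was laid over seeds; untreated soil served as control cover. Day/night temperatures: 30/21° C warm season, 18/13° C cool season. Efficacy recorded ~14 days after planting as percent inhibition.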
# [3] = test system: CHEAL (common lambsquarters); test: as above; format: in vivo, Chenopodium album; settings: pre-plant incorporated; GR80 = lowest tested rate with 80% or greater inhibition; approx. 14 days after treating; 30/21° C.
# Procedure, shortened: as §2
# [4] = test system: PANMI (wild proso millet); test: as above; format: in vivo, Panicum miliaceum; settings: for inhibition at 10 g/ha / inhibition at 30 g/ha / inhibition at 100 g/ha / inhibition at 300 g/ha / inhibition at 900 g/ha: Panicum miliaceum, PPI application, read-out: Percent inhibition PANMI; for PPI activity GR80, PANMI: pre-plant incorporated, lowest tested rate with 80% or greater inhibition, about 14 days
# Procedure, shortened: as §2
# LOLMG (annual ryegrass) = test: Pre-plant incorporated (PPI) herbicidal activity, cool season; format: in vivo, Lolium multiflorum; settings: for inhibition at 10 g/ha / inhibition at 30 g/ha / inhibition at 100 g/ha / inhibition at 300 g/ha / inhibition at 900 g/ha: Lolium multiflorum, weed, PPI application, read-out: Percent inhibition LOLMG; for PPI activity GR80, LOLMG: pre-plant incorporated, lowest tested rate with 80% or greater inhibition, about 14 days
# Procedure, shortened: as §2
# [5] = test system: AEGCY (jointed goatgrass); test: as above; format: in vivo, Aegilops cylindrica; settings: for inhibition at 10 g/ha / inhibition at 30 g/ha / inhibition at 100 g/ha / inhibition at 300 g/ha / inhibition at 900 g/ha: Aegilops cylindrica, weed, PPI application, read-out: Percent inhibition AEGCY; for PPI activity GR80, AEGCY: pre-plant incorporated, lowest tested rate with 80% or greater inhibition, about 14 days
# Procedure, shortened: as §2
# XANST (cocklebur) = test: Pre-plant incorporated (PPI) herbicidal activity, warm season; format: in vivo, Xanthium strumarium; settings: Xanthium strumarium, PPI application, read-out: Percent inhibition XANST
# Procedure, shortened: as §2
# wheat (TRZAW) = test: Selectivity test, PPI, cool season crop; format: in vivo, Triticum aestivum; settings: Triticum aestivum, PPI application, read-out: Percent inhibition TRZAW
# Procedure, shortened: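 Pre-plant incorporated: compound in organic solvent sprayed onto cover soil, mixed and laid over seeds; untreated soil for controls. Greenhouse after treatment: warm season 30/21° C., cool season 18/13° C. day/night. Percent inhibition versus untreated plants scored about 14 days after planting.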
SMILES,"Pre-emergence activity GR80, SINAR (SINAR (wild mustard)) [g/ha]","Pre-emergence activity GR80, LAMPU [1] [g/ha]",Pre-emergence activity (GR80) SETVI (SETVI (green foxtail)) [g/ha],Pre-emergence activity (GR80) AGSST [2] [g/ha],inhibition at 10 g/ha (AMARE (redroot pigweed)) [%],inhibition at 30 g/ha (AMARE (redroot pigweed)) [%],inhibition at 100 g/ha (AMARE (redroot pigweed)) [%],inhibition at 300 g/ha (AMARE (redroot pigweed)) [%],inhibition at 900 g/ha (AMARE (redroot pigweed)) [%],PPI activity (GR80) AMARE (AMARE (redroot pigweed)) [g/ha],PPI activity (GR80) CHEAL [3] [g/ha],inhibition at 10 g/ha [4] [%],inhibition at 30 g/ha [4] [%],inhibition at 100 g/ha [4] [%],inhibition at 300 g/ha [4] [%],inhibition at 900 g/ha [4] [%],"PPI activity GR80, PANMI [4] [g/ha]",inhibition at 10 g/ha (LOLMG (annual ryegrass)) [%],inhibition at 30 g/ha (LOLMG (annual ryegrass)) [%],inhibition at 100 g/ha (LOLMG (annual ryegrass)) [%],further results
"C=CCC(F)(F)S(=O)(=O)c1ncn(C(=O)N(CC)CC)n1 [Example 17, 1-(N,N-diethylcarbamoyl)-3-[(1,1-difluoro-3-butenyl)sulfonyl]-1,2,4-triazole]",100,100,100,100,60,95,100,100,100,10,300,60,100,100,100,100,10,45,60,95,"inhibition at 300 g/ha (LOLMG (annual ryegrass)): 100%; inhibition at 900 g/ha (LOLMG (annual ryegrass)): 100%; PPI activity GR80, LOLMG (LOLMG (annual ryegrass)): 100 g/ha; inhibition at 10 g/ha [5]: 0%; inhibition at 30 g/ha [5]: 0%; inhibition at 100 g/ha [5]: 0%; inhibition at 300 g/ha [5]: 20%; inhibition at 900 g/ha [5]: 40%; PPI activity GR80, AEGCY [5]: 100 g/ha; inhibition at 10 g/ha (XANST (cocklebur)): 0%; inhibition at 30 g/ha (XANST (cocklebur)): 0%; inhibition at 100 g/ha (XANST (cocklebur)): 0%; inhibition at 300 g/ha (XANST (cocklebur)): 20%; inhibition at 900 g/ha (XANST (cocklebur)): 100%; inhibition at 10 g/ha (wheat (TRZAW)): 0%; inhibition at 30 g/ha (wheat (TRZAW)): 0%; inhibition at 100 g/ha (wheat (TRZAW)): 10%; inhibition at 300 g/ha (wheat (TRZAW)): 30%; inhibition at 900 g/ha (wheat (TRZAW)): 60%"
C=C(C)CC(F)(F)S(=O)(=O)c1ncn(C(=O)N(CC)CC)n1 [Example 18],300,300,30,30,30,100,100,100,100,300,30,0,40,100,100,100,100,20,60,50,"inhibition at 300 g/ha (LOLMG (annual ryegrass)): 100%; inhibition at 900 g/ha (LOLMG (annual ryegrass)): 100%; PPI activity GR80, LOLMG (LOLMG (annual ryegrass)): 100 g/ha; inhibition at 10 g/ha [5]: 0%; inhibition at 30 g/ha [5]: 0%; inhibition at 100 g/ha [5]: 0%; inhibition at 300 g/ha [5]: 20%; inhibition at 900 g/ha [5]: 10%; PPI activity GR80, AEGCY [5]: * (activity observed, at least at highest rate, but <80% inhibition); inhibition at 10 g/ha (XANST (cocklebur)): 0%; inhibition at 30 g/ha (XANST (cocklebur)): 0%; inhibition at 100 g/ha (XANST (cocklebur)): 0%; inhibition at 300 g/ha (XANST (cocklebur)): 0%; inhibition at 900 g/ha (XANST (cocklebur)): 30%; inhibition at 10 g/ha (wheat (TRZAW)): 0%; inhibition at 30 g/ha (wheat (TRZAW)): 0%; inhibition at 100 g/ha (wheat (TRZAW)): 0%; inhibition at 300 g/ha (wheat (TRZAW)): 30%; inhibition at 900 g/ha (wheat (TRZAW)): 60%"
C=C(Br)CC(F)(F)S(=O)(=O)c1ncn(C(=O)N(CC)CC)n1 [Example 19],30,30,100,30,0,20,95,95,100,100,100,0,60,100,100,100,100,30,70,100,"inhibition at 300 g/ha (LOLMG (annual ryegrass)): 100%; inhibition at 900 g/ha (LOLMG (annual ryegrass)): 100%; PPI activity GR80, LOLMG (LOLMG (annual ryegrass)): 300 g/ha; inhibition at 10 g/ha [5]: 0%; inhibition at 30 g/ha [5]: 0%; inhibition at 100 g/ha [5]: 20%; inhibition at 300 g/ha [5]: 50%; inhibition at 900 g/ha [5]: 20%; PPI activity GR80, AEGCY [5]: 300 g/ha; inhibition at 10 g/ha (XANST (cocklebur)): 0%; inhibition at 30 g/ha (XANST (cocklebur)): 0%; inhibition at 100 g/ha (XANST (cocklebur)): 0%; inhibition at 300 g/ha (XANST (cocklebur)): 0%; inhibition at 900 g/ha (XANST (cocklebur)): 90%; inhibition at 10 g/ha (wheat (TRZAW)): 0%; inhibition at 30 g/ha (wheat (TRZAW)): 0%; inhibition at 100 g/ha (wheat (TRZAW)): 30%; inhibition at 300 g/ha (wheat (TRZAW)): 70%; inhibition at 900 g/ha (wheat (TRZAW)): 60%"
